Results published in patent publication US7592457B2 (Korea Research Institute of Chemical Technology, priority 2004, dated 2009).

Legend:
5-HT2c = biological target: T1, 5-HT2c (Homo sapiens, UniProt P28335); experiment: Radioligand binding, 5-HT2c ([3H]Mesulergine); details: read-out: Binding affinity (Inhibition rate % at 10 μM) 5HT2c
T1 construct: purchased Euroscreen/BioSignal Packard Inc
T1 sequence (P28335 33-458): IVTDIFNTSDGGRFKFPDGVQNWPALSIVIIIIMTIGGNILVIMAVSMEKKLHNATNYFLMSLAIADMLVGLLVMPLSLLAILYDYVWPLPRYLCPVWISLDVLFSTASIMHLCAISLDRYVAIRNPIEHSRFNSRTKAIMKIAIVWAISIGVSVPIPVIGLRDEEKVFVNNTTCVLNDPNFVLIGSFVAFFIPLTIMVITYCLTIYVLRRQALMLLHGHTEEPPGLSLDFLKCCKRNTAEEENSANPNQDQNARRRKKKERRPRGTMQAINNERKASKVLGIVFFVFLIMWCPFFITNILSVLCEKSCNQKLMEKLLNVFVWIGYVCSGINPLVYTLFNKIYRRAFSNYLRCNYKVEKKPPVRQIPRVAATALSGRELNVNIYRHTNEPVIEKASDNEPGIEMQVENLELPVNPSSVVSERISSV
Procedure: (§1) Radioligand bindings were performed according to the test method provided by the supplier of receptor membrane (Euroscreen/BioSignal Packard Inc.).

5-HT1a = biological target: T2, 5-HT1a (Homo sapiens, UniProt P08908); experiment: Radioligand binding, 5-HT1a ([3H]8-OH-DPAT); details: read-out: Binding affinity (Inhibition rate % at 10 μM) 5HT1a
T2 construct: purchased Euroscreen/BioSignal Packard Inc
T2 sequence (P08908 1-422): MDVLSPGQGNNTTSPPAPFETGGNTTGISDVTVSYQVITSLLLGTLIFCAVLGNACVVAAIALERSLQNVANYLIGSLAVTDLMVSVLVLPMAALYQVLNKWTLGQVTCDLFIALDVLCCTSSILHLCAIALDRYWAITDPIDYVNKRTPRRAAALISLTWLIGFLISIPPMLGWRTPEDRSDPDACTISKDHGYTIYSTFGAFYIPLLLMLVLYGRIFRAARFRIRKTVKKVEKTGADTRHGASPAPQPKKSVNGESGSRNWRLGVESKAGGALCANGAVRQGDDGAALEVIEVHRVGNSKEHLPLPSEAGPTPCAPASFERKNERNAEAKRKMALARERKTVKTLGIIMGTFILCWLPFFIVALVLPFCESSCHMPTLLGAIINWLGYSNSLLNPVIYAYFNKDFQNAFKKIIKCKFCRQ
Procedure: as §1

hD2L receptor = biological target: T3, hD2L receptor (Homo sapiens, UniProt P14416); experiment: Radioligand binding, dopamine D2 ([3H]spiperone); details: read-out: Binding affinity (Inhibition rate % at 10 μM) D2
T3 construct: purchased BioSignal Packard Inc., Montreal, Canada
T3 sequence (P14416 whole entry): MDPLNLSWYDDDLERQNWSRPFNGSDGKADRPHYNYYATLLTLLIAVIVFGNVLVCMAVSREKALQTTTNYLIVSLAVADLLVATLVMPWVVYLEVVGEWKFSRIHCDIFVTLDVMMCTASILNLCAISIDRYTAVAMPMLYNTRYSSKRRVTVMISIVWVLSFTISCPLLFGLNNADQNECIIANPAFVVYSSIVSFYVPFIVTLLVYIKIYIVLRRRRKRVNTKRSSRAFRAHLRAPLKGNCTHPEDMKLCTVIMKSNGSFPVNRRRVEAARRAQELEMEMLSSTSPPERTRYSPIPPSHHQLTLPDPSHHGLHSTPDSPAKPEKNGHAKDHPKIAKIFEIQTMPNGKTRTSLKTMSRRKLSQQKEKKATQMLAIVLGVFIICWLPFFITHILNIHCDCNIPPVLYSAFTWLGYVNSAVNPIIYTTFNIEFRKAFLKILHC

[1] = system: methamphetamine-induced hyperactivity and stereotypy; experiment: Methamphetamine-induced hyperactivity and stereotypy in rats; assay type: in vivo, rat; details: 50 mg/kg, i.p., methamphetamine 2 mg/kg
Procedure: On the day of testing, rats (200-250 g) were put into a transparent polycarbonate cages located in the activity chamber, and adapted for 30 minutes. For a methamphetamine-induced activity, vehicle or compounds according to the present invention was injected (i.p.) 30 minutes before the injection of methamphetamine (2 mg/kg, i.p.). After systemic injection of methamphetamine, total movement distance traveled or total stereotypy was measured over the 120-minutes period using an activity analyzer (TruScan, Coulbourn Instruments, USA).
The inhibitory effect of compounds (50 mg/kg, i.p.) of the present invention on methamphetamine (2 mg/kg, i.p.)-induced hyperactivity in rats is shown in FIGS. 2(a) and 2(b). The inhibitory effects of compounds (50 mg/kg, i.p.) of the present invention on methamphetamine (2 mg/kg, i.p.)-induced stereotypy is shown in FIGS. 3(a) and 3(b).

D1 = D1 (Homo sapiens, UniProt P21728); experiment: Radioligand binding for selectivity, D1; details: read-out: Binding affinity (Inhibition rate % at 10 μM) D1
Chain of D1 (P21728 whole entry): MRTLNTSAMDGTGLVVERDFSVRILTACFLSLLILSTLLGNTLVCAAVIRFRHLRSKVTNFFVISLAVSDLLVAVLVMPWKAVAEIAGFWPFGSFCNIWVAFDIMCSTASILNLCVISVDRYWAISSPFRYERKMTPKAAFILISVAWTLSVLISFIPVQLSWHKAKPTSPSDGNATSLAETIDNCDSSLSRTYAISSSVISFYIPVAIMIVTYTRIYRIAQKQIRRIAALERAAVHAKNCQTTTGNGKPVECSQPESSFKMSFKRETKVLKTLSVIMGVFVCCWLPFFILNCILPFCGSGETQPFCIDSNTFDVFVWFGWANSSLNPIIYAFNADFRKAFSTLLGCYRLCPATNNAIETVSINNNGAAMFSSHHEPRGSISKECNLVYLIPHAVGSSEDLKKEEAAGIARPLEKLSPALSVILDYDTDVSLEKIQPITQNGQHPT

[2] = biological target: T4, human serotonin 5-HT6 receptor (Homo sapiens, UniProt P50406); experiment: [3H]LSD binding at cloned 5-HT6 receptors; details: for IC50: [3H]LSD 1.87 nM, cloned receptor membranes, 37° C., 60 min, read-out: IC50; for 5-HT6 affinity compared with known selective antagonists: in words; for inhibition at 10 µM: read-out: Binding affinity (Inhibition rate % at 10 μM) 5HT6
T4 construct: made in house; host or cells: Sf21 insect cells (pBacPAK8 baculovirus vector)
T4 sequence (P50406 whole entry): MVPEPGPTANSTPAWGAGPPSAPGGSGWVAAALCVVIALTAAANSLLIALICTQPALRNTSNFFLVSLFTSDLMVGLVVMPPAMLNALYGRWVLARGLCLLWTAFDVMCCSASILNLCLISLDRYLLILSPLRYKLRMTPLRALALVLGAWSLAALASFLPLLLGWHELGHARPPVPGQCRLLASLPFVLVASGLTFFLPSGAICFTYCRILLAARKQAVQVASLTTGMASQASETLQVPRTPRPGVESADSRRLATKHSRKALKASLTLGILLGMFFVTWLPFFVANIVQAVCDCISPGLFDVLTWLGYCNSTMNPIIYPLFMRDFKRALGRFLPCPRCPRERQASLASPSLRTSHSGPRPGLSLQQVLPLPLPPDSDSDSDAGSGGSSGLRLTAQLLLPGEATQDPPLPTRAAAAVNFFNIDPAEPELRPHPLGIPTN

5-HT7 = biological target: T5, 5-HT7 (Homo sapiens, UniProt P34969); experiment: Radioligand binding, 5-HT7 ([3H]LSD); details: for inhibition at 10 µM: read-out: Binding affinity (Inhibition rate % at 10 μM) 5HT7
T5 construct: purchased Euroscreen/BioSignal Packard Inc
T5 sequence (P34969 whole entry): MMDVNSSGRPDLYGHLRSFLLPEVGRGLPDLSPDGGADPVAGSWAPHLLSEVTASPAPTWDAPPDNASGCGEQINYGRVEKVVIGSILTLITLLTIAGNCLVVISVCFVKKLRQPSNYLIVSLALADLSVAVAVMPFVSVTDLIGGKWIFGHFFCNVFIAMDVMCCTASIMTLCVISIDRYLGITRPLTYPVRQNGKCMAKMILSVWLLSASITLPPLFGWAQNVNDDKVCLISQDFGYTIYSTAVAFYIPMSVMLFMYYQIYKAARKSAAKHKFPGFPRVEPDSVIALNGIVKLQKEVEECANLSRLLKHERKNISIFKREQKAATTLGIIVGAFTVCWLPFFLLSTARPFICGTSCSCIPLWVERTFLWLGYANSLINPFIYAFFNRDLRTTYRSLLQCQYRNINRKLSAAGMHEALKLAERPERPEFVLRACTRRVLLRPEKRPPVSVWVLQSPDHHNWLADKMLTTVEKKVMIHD
Procedure: as §1

5-HT2a = biological target: T6, 5-HT2a (Homo sapiens, UniProt P28223); experiment: Radioligand binding, 5-HT2a ([3H]Ketanserin); details: read-out: Binding affinity (Inhibition rate % at 10 μM) 5HT2a
T6 construct: purchased Euroscreen/BioSignal Packard Inc
T6 sequence (P28223 whole entry): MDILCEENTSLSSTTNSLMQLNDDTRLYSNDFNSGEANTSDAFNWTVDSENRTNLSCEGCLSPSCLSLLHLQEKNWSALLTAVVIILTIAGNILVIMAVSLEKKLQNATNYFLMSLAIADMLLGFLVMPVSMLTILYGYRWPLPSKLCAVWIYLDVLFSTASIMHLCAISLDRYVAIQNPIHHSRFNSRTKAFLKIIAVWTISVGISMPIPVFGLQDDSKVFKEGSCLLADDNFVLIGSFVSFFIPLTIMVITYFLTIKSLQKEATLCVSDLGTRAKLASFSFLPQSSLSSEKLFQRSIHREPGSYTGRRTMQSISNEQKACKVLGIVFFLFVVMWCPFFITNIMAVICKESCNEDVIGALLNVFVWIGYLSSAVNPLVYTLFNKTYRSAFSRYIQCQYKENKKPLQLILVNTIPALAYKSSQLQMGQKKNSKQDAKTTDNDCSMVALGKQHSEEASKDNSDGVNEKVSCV
Procedure: as §1

5-HT6 receptors [3] = biological target: T7, 5-HT6 receptors (Homo sapiens, UniProt P50406); experiment: 5-HT-stimulated cAMP accumulation in HeLa cell transfected with human 5-HT6 receptor; assay type: cell-based; parameters: host or cells: HeLa; details: for Antagonist activity compared with methiothepin: 5-HT-stimulated cAMP accumulation; for Functional classification at 5-HT6 receptor: inhibition of 5-HT-stimulated cAMP accumulation
T7 sequence (P50406 whole entry): as the sequence (P50406 whole entry) above
Procedure: By a method (2000) disclosed by Rutledge et al. of MDS Pharma Service (Bothell, Wash., USA, MDSPS PT# 1037161), activity of adenylil cyclase in HeLa cell having transfected with human 5-HT6 receptor was measured. The assay mixture consisted of Hanks' balanced salt solution (HBSS, pH 7.4) containing: 1 mM MgCl2, 1 mM CaCl2, […] 1-methyl-3-isobutylxanthine. Incubation was started by addition of membrane suspension and compounds according to the present invention.

hD3 receptor = biological target: T8, hD3 receptor (Homo sapiens, UniProt P35462); experiment: Radioligand binding, dopamine D3 ([3H]spiperone); details: read-out: Binding affinity (Inhibition rate % at 10 μM) D3
T8 construct: purchased BioSignal Packard Inc., Montreal, Canada
T8 sequence (P35462 whole entry): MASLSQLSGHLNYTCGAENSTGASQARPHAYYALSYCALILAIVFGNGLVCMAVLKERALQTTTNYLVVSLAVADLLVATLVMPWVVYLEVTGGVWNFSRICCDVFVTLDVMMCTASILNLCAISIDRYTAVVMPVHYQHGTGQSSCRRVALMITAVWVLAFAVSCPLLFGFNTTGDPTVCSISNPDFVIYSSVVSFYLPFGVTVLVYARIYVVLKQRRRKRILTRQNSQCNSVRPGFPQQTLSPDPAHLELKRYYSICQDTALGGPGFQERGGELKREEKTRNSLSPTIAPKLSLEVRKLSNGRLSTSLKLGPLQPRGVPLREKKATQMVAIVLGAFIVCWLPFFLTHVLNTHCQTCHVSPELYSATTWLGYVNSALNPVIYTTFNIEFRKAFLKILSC

hD4.2 receptor = biological target: T9, hD4.2 receptor (Homo sapiens, UniProt P21917, DEL265-296); experiment: Radioligand binding, dopamine D4 ([3H]YM-09151-2); details: read-out: Binding affinity (Inhibition rate % at 10 μM) D4
T9 construct: purchased BioSignal Packard Inc., Montreal, Canada
T9 sequence (P21917 with tags, fused parts or gaps DEL265-296): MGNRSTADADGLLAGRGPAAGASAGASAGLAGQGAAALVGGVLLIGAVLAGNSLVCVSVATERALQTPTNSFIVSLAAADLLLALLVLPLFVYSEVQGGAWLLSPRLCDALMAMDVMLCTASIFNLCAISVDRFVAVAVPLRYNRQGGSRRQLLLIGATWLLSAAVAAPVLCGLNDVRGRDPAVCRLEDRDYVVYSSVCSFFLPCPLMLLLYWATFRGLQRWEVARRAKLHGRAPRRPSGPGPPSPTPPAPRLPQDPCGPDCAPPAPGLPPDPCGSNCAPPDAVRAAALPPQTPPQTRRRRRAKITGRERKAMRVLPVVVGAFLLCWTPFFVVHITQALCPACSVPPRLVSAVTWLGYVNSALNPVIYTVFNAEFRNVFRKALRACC

5-HT6 receptors [4] = biological target: T7, 5-HT6 receptors; details: literature; cited from earlier work
5-HT6 receptors [5] = biological target: T7, 5-HT6 receptors; details: antagonist, literature; cited from earlier work
[6] = system: rat maximal electroseizure threshold; details: literature, cited from earlier work
rats [7] = details: literature; cited from earlier work
rats [8] = details: literature; cited from earlier work; remark: listed apart in the source
[9] = system: extracellular glutamate levels; details: frontal cortex and dorsal hippocampus, literature; cited from earlier work
rats [10] = details: water maze, literature; cited from earlier work
[11] = cited from earlier work

Structure (SMILES)	inhibition at 10 µM (5-HT2c)	inhibition at 10 µM (5-HT1a)	inhibition at 10 µM (hD2L receptor)	inhibition at 10 µM (D1)	melting point	IC50 [2]	5-HT6 affinity compared with known selective antagonists [2]	inhibition at 10 µM [2]	inhibition at 10 µM (5-HT7)	inhibition at 10 µM (5-HT2a)	inhibition at 10 µM (hD3 receptor)	inhibition at 10 µM (hD4.2 receptor)	further results
CC1(c2ccccc2)C(=O)Nc2cc(Cl)cc(Cl)c2C1=O (centres unmarked) [Example 1, 5,7-dichloro-3-methyl-3-phenyl-1H-quinoline-2,4-dione]	18.3%	16.4%	1.6%	11.4%	222 to 225 °C	89 nM	almost same affinities as or better affinities than known selective antagonists	91.1%	43.2%	6.4%	12.6%	0%	Antipsychotic effect [1]: mild antipsychotic effect; Antagonist activity compared with methiothepin (5-HT6 receptors [3]): weaker antagonist activity than methiothepin; Functional classification at 5-HT6 receptor (5-HT6 receptors [3]): 5-HT6 receptor antagonist
COc1cc2c(c(OC)c1)C(=O)C(C)(c1ccccc1)C(=O)N2 (centres unmarked) [Example 8, 5,7-dimethoxy-3-methyl-3-phenyl-1H-quinoline-2,4-dione]	23.9%	30.2%	16%	16.9%	–	118 nM	–	74%	23.3%	13.6%	4.6%	0.8%	Ki (5-HT6 receptors [4]): 1.4 nM
CC1(c2ccc(O)cc2)C(=O)Nc2cc(Cl)cc(Cl)c2C1=O (centres unmarked) [Example 13, 5,7-dichloro-3-(4-hydroxy-phenyl)-3-methyl-1H-quinoline-2,4-dione]	39.4%	33.9%	35.2%	51%	222 to 223 °C	20 nM	almost same affinities as or better affinities than known selective antagonists	89.5%	36.7%	48.6%	27.8%	0%	Antipsychotic effect [1]: mild antipsychotic effect; Antagonist activity compared with methiothepin (5-HT6 receptors [3]): weaker antagonist activity than methiothepin; Functional classification at 5-HT6 receptor (5-HT6 receptors [3]): 5-HT6 receptor antagonist
CN1CCN(c2ccc3c(c2)NC(=O)C(C)(c2ccc([N+](=O)[O-])cc2)C3=O)CC1 (centres unmarked) [Example 51, 3-methyl-7-(4-methyl-piperazine-1-yl)-3-(4-nitro-phenyl)-1H-quinoline-2,4-dione]	20.3%	44.2%	7.4%	40.9%	150 to 151 °C	904 nM	–	73.5%	17.5%	26.4%	13.5%	0%	–
COc1cc(Cl)c2c(c1)NC(=O)C(C)(c1ccc(Br)cc1)C2=O (centres unmarked) [Example 52, 3-(4-bromo-phenyl)-5-chloro-7-methoxy-3-methyl-1H-quinoline-2,4-dione]	20%	7.8%	9.3%	41.5%	239 to 240 °C	73 nM	almost same affinities as or better affinities than known selective antagonists	89.6%	8.8%	30.6%	7.4%	0%	–
COc1ccc2c(c1)c(CCN(C)C)cn2S(=O)(=O)c1ccccc1 [MS-245]	–	–	–	–	–	–	–	–	–	–	–	–	pA2 (5-HT6 receptors [5]): 8.88
CNc1cc(NS(=O)(=O)c2ccc(N)cc2)nc(NC)n1 [Ro 04-6790]	–	–	–	–	–	–	–	–	–	–	–	–	anticonvulsant activity [6]: possess anticonvulsant activity; behavior of yawning, stretching, and chewing (rats [7]): capable of inducing this same effect; food intake (rats [8]): decreased food intake
COc1ccc(NS(=O)(=O)c2sc3ccc(Cl)cc3c2C)cc1N1CCNCC1 [SB-271046, reference compound]	64.3%	84.2%	17.3%	49.7%	–	–	–	–	–	60.1%	66.2%	14.2%	extracellular glutamate levels [9]: increased extracellular glutamate levels in frontal cortex and dorsal hippocampus by several fold; anticonvulsant activity [6]: possess anticonvulsant activity; retention of a previously learned task (rats [10]): significant improvement in retention of a previously learned task; oral bioavailability ([11]; literature): > 80%; Binding affinity (Inhibition rate % at 10 μM) 5HT7 (5-HT7; 10 μM): 34.9%
COc1ccc(S(=O)(=O)Nc2cc(Br)cc(F)c2Br)cc1N1CCNCC1 [SB-357134]	–	–	–	–	–	–	–	–	–	–	–	–	seizure threshold ([6]; rat maximal electroseizure threshold, oral administration): potent and dose-dependent increase in seizure threshold; retention of a previously learned task (rats [10]): significant improvement in retention of a previously learned task; clearance (in words) ([11]; in vivo): low clearance rate
